Measurements as given in ChEMBL document CHEMBL5727957, “1H-pyrazolo[4,3-b]pyridines as PDE1 inhibitors” (2020).

Assays:
[1] = molecular target: Dual specificity calcium/calmodulin-dependent 3',5'-cyclic nucleotide phosphodiesterase 1A (Homo sapiens, UniProt P54750); assay: Inhibition Assay: PDE1A, PDE1B and PDE1C assays were performed as follows: the assays were performed in 60 μL samples containing a fixed amount of the PDE1 enzyme (sufficient to convert 20-25% of the cyclic nucleotide substrate), a buffer (50 mM HEPES pH 7.6; 10 mM MgCl2; 0.02% Tween20), 0.1 mg/ml BSA, 15 nM tritium labelled cAMP and varying amounts of inhibitors. Reactions were initiated by …
Description: (§1) Reactions were initiated by addition of the cyclic nucleotide substrate, and reactions were allowed to proceed for 1 hr at room temperature before being terminated through mixing with 20 μL (0.2 mg) yttrium silicate SPA beads (PerkinElmer).

[2] = molecular target: Dual specificity calcium/calmodulin-dependent 3',5'-cyclic nucleotide phosphodiesterase 1C (Homo sapiens, UniProt Q14123); assay: as above
Dual specificity calcium/calmodulin-dependent 3',5'-cyclic nucleotide phosphodiesterase 1C, sequence (Q14123 whole entry): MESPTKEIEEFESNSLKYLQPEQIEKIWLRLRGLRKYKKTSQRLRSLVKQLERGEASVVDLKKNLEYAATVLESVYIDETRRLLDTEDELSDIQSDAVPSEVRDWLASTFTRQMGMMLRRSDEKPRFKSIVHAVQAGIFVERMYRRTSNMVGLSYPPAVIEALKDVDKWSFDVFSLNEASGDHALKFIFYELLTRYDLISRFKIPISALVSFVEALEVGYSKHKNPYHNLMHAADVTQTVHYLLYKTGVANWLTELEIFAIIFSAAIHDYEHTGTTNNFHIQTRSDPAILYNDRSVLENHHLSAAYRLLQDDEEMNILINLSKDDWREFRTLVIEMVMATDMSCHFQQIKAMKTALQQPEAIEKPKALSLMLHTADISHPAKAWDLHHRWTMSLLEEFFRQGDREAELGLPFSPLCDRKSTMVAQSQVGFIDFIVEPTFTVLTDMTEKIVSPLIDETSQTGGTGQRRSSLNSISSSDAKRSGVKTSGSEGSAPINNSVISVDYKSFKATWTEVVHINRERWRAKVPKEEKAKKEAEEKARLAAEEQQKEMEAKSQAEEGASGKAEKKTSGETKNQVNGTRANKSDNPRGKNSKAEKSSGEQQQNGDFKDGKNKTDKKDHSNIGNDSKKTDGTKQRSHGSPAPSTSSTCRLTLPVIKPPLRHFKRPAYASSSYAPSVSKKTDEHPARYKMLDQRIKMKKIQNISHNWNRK
Description: as §1

Dual specificity calcium/calmodulin-dependent 3',5'-cyclic nucleotide phosphodiesterase 1A, sequence (P54750 whole entry): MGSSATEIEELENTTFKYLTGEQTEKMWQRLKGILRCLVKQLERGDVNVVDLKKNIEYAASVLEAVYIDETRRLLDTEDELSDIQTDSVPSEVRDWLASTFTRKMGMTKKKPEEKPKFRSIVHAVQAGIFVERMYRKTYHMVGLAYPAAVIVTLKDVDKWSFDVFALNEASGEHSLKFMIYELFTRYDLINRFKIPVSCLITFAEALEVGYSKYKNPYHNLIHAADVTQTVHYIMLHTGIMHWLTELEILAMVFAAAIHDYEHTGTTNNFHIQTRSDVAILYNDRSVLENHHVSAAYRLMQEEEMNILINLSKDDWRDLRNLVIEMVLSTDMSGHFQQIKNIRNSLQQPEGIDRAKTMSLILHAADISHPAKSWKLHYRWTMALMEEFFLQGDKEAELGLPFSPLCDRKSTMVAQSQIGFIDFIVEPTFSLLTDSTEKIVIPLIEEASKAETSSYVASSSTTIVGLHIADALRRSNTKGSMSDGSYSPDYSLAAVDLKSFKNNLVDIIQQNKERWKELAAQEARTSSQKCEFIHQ

Compound	IC50 [1] [nM]	IC50 [2] [nM]
CCOc1ncccc1-c1cc(NCc2cccn3c(C)nnc23)c2c(n1)c(C)nn2C(C)C	3	6.1
CCOc1ncccc1-c1cc(NCc2cccc3ocnc23)c2c(n1)c(C)nn2C(C)C	14	39
